Assay results taken from paper PMC10700139 (Nature, 2023).
Values joined by “and” are separate entries in the source; they are usually repeats but may differ in a detail not shown here. Equal values may be shown once.

Assays:
PtCAL-1a/PtCAL-2a = target: T1, PtCAL-1a/PtCAL-2a (Phlegmariurus tetrastichus, UniProt P0DXL1+P0DXL3); assay: In vitro reactions with apoplastic PtCAL-1a/PtCAL-2a (formation of 9, decarboxylation of 3, Zn chelator); assay type: biochemical
T1 construct: N-terminal signal peptide[58], which would be cleaved during processing and trafficking of these proteins; made in house; host or cells: Nicotiana benthamiana leaves (Agrobacterium transient co-expression, pEAQ-HT), concentrated apoplast extract
T1 sequence (P0DXL1 22-280): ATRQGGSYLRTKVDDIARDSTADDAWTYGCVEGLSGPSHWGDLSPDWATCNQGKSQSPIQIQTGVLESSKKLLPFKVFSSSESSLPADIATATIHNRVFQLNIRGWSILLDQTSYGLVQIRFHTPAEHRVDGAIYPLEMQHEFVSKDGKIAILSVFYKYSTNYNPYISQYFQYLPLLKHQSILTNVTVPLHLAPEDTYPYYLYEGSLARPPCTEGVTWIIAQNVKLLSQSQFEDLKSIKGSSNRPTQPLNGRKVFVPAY
T1 sequence (P0DXL3 24-284): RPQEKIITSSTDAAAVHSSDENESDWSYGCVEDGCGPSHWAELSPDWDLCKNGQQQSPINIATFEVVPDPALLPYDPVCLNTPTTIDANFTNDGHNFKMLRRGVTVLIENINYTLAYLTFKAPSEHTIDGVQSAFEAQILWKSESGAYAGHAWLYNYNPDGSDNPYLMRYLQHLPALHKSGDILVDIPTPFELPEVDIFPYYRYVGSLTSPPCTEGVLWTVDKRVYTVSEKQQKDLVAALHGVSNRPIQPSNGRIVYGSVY
Excerpt: The three CAL proteins identified in this study have predicted N-terminal signal peptides, which were identified using the TargetP-2.0 server (https://services.healthtech.dtu.dk/service.php?TargetP-2.0)[58]. […] To assess this possibility, CAL genes with or without C-terminal 6xHis tags were transiently expressed in N. benthamiana, as described above. Each CAL gene was expressed individually; also, PtCAL-1a and PtCAL-2a were transiently co-expressed in the same leaf because we had found them to cofunction in Lycopodium alkaloid biosynthesis. At 4 days after Agrobacterium infiltration, apoplast protein extracts were isolated using the infiltration–centrifugation method, much as previously described. Two leaves per reaction were excised from the plant and submerged in ice-cold apoplast extraction buffer (100 mM MES, 300 mM NaCl, pH 5.5) in an open-capped 50 ml Falcon tube and these tubes were placed in a plastic vacuum chamber attached to a Welch Model 2025 vacuum pump. The chamber was brought down to full vacuum and after 2 min at this pressure, the vacuum was slowly released to allow for buffer to infiltrate the leaf apoplastic space. Buffer-infiltrated leaves were carefully removed from the Falcon tubes, blotted dry with paper towels and were then rolled into Parafilm and placed in a plungerless 5 ml plastic syringe. The syringe was placed in a 15 ml Falcon tube and this was then centrifuged at 1,000g and 4 °C for 10 min to collect apoplast extract. The resulting extract was centrifuged at 10,000g and 4 °C for 15 min to pellet any larger cellular debris and the supernatant was concentrated using an Amicon Ultra-4 Centrifugal Filter Unit (10 kDA MWCO, MilliporeSigma UFC501024). Protein concentrations were measured using the BIO-RAD Protein Assay or Bradford assay (Abcam 119216) and adjusted with apoplast extraction buffer to a final concentration between 0.5 and 1.5 mg ml^−1. Aliquots of the extracts were snap frozen in liquid nitrogen and stored at −80 °C.
Reactions with CAL-enriched apoplast were routinely performed in low-pH potassium phosphate buffer (50 mM potassium phosphate, 100 mM NaCl, pH 5.9) at a volume of 20 µl. For PtCAL-1a/PtCAL-2a, these reactions contained approximately 1.4 µg of apoplast protein for each CAL (final concentration of 0.07 µg µl^−1). Control reactions used apoplast from leaves expressing only one CAL or with apoplast generated from GFP-expression N. benthamiana leaves. The requisite substrates for this reaction were generated through the activities of in vitro PtPIKS-1 and PtCYP782C1 enzyme reactions. […]. To generate 3 and 4 as potential substrates, 1 µg of previously purified PtPIKS-1 enzyme[23] and 150 µM 1 and 300 µM malonyl-CoA were added directly to the CAL reaction mixtures. After thorough mixing, reactions were incubated at room temperature. An alternative route for producing 3 and 4 independently of thioester intermediates was achieved by mixing stocks of 1 (10 mM in water) and 2 (10 mM in water; always prepared fresh to minimize compound decomposition) in equal proportion, followed by incubation at room temp for 1–2 h, as these two substrates can non-enzymatically condense to yield 3 (which can spontaneously decarboxylate to produce 4). A 2 µl aliquot of this mixture was then added as a component of the PtCAL-1a/PtCAL-2a enzyme reaction (20 µl total reaction volume) in addition to the PtCYP782C1 microsomal reaction mixture. After predesignated incubation times, reactions were quenched by diluting tenfold into ACN with 0.1% formic acid.
To evaluate the potential decarboxylation of β-keto acid substrates by PtCAL-1/PtCAL-2 and PtCAL-3, only 3 or 2, respectively, were added as substrate. PtCAL-1/PtCAL-2 reactions were quenched by diluting aliquots tenfold into ACN with 0.1% formic acid and were subsequently analysed through HILIC LC–MS. PtCAL-3 reactions were quenched by mixing aliquots with an equal volume of water with 0.2% formic acid and were then analysed through C18 LC–MS. […]

[1] = Stability of PtCYP782C1 products in leaf extract incubated at room temperature; assay type: physicochemical; settings: samples incubated at room temperature for 1 h
Experimental: The production of (2S, 4S)-6 and (2S, 4R)-6 was consistent with our hypothesis for elimination-mediated formation of the proposed diene (8). Because formation of 8 would require oxidation of the O-acetylated substrate(s), we next screened CYP and 2OGD family enzymes found in cluster131. […] This coincided with the presence of two new compounds: one that corresponded to a single oxidation (desaturation) of the O-acetylated substrate (7, [M + H]^+ = m/z 184.1332, retention time 1.86 min), as well as another which shared the same exact mass as 8 ([M + H]^+ = m/z 124.1121, retention time 1.93 min). […] Although this limited our ability to access authentic standards, tandem mass spectrometry (MS/MS or MS^2) analysis supported the proposed structures of 7 and 8 and ultraviolet (UV) analysis of 8 corroborated the presence of the predicted α,β-unsaturated imine in this molecule[34] (Extended Data Fig. 2c,d). […]
Extended Data Fig. 2 Functional characterization of PtCYP782C1. a) Transient expression of PtCYP782C1 with a biosynthetic module for the production of 6 diastereomers (PtLDC, PtCAO, PtPIKS, PtSDR-1 or PtSDR-2 and PtACT-1) in N. benthamiana. […] Product abundance is calculated as the integration of the peak generated in the EIC for each mass ion. g) Relative activity of PtCYP782C1 microsomes at varying pH, as determined via production of both 7 and 8. […]

several insect species = tested on: several insect species; design: method as in PMID 11804518; settings: cited from earlier work

With O=C(O)CC(=O)CC1CCCCN1 (centres unmarked) [compound 3, 4-(2-piperidyl)acetoacetic acid] the “ratio of 4 ion abundance (m/z 142.1226) to that of 3 (m/z 186.1125)” value (shortened to “ratio of 4 ion abundance”) (PtCAL-1a/PtCAL-2a; PtCAL-1a/PtCAL-2a +3 (ED 4h)) was 31.4694 and 27.1428 and 38.6295, the “ratio of 4 ion abundance” value (PtCAL-1a/PtCAL-2a; PtCAL-1a/PtCAL-2a +3, 0.25 hrs (ED 4g)) was 66.6374 and 57.9149 and 54.0594 and the “ratio of 4 ion abundance” value (PtCAL-1a/PtCAL-2a; PtCAL-1a/PtCAL-2a +3, 0.5 hrs (ED 4g)) was 59.9271 and 67.8727 and 55.7877. The “ratio of 4 ion abundance” value (PtCAL-1a/PtCAL-2a; PtCAL-1a/PtCAL-2a +3, 1 hrs (ED 4g)) was 70.6508 and 59.4497 and 51.4084 and the “ratio of 4 ion abundance” value (PtCAL-1a/PtCAL-2a; PtCAL-1a/PtCAL-2a +3, 2 hrs (ED 4g)) was 57.1082 and 53.747 and 49.4186.
In the case of CC(=O)OC(C)CC1=NCCCC1 (centres unmarked) [compound 7], the “stability of compound in sample” value [1] was “almost entirely lost”.
With C/C=C/C1=NCCCC1 [compound 8] the “stability of compound in sample” value [1] was “almost entirely lost”.
In the case of C/C=C1\[C@H]2C=C(C)C[C@]1(N)c1ccc(=O)[nH]c1C2 [compound 17, huperzine A], the antifeedant activity (several insect species) is given as “antifeedant activity”.
